Experimental data taken from patent US6946427B2, “Preservative blends containing iodine containing compounds” (Lonza Inc., priority 2001, dated 2005).
Where two headings read alike, the source gives them in different places.

System: S. aureus, P. aeruginosa, and E. coli
Assay: Preservative challenge test in anionic protein shampoo inoculated with mixed bacteria; plate counts and Kull synergism value
Type: cell-based

Structure (SMILES)	S. aureus, P. aeruginosa, and E. coli (cfu/g) Day 0 (anionic protein shampoo, single preservative, printed ">0.5%" by weight, Day 0)	S. aureus, P. aeruginosa, and E. coli (cfu/g) Day 14 (anionic protein shampoo, single preservative, printed ">0.5%" by weight, Day 14)	Qc, concentration of sodium dehydroacetate monohydrate alone required to yield 100% retardation of the bacteria (percent by weight, plate count <10 cfu/g after 14 days) [%]	Qa, concentration of sodium salicylate alone required to yield 100% retardation of the bacteria [%]	S. aureus, P. aeruginosa, and E. coli (cfu/g) Day 0	S. aureus, P. aeruginosa, and E. coli (cfu/g) Day 14
CC(=O)c1c([O-])cc(C)oc1=O.O.[Na+] [Sodium Dehydroacetate Monohydrate, sodium dehydroacetate monohydrate]	3.0 × 10^6 cfu/g	4.0 × 10^3 cfu/g	>0.50			
O=C([O-])c1ccccc1O.[Na+] [Sodium Salicylate, sodium salicylate]				>1.00	3.0 × 10^6 cfu/g	5.0 × 10^2 cfu/g
